Measurements: paper PMC12294558, “New 1,2,4-Triazole Derivatives with a N-Mannich Base Structure Based on a 4,6-Dimethylpyridine Scaffold as Anticancer Agents: Design, Synthesis, Biological Evaluation, and Molecular Modeling” (International Journal of Molecular Sciences, 2025)
Marks after values point to notes of the source that are not given here.

Assays:
LoVo cells = test: MTT viability assay, colorectal cancer cells LoVo; type: cell-based, human; details: for SI, LoVo: CC50 CCD 841 CoTr / CC50 LoVo
Description: The cytotoxic effects of ten newly synthesized N-Mannich bases were assessed on the normal human intestinal epithelium (CCD 841 CoTr) and cancer cell lines: gastric cancer (EPG) and four colorectal cancer lines (Caco-2, LoVo, LoVo/Dx, and HT-29). Cell viability was evaluated using the MTT assay in accordance with Annex C of ISO 10993-5 [33].
The biological activity of the newly synthesized compounds was assessed in the context of anticancer activity. For this purpose, several gastrointestinal cancer lines were selected: gastric cancer (EPG 257, which belongs to the collection of the Laboratory of Cell Culture and Advanced Therapy at the University of Environmental and Life Sciences in Wrocław), and four colorectal cancer cell lines (LoVo, Caco-2, and HT-29) were obtained from the European Collection of Authenticated Cell Cultures (ECACC) and were delivered by Sigma-Aldrich, a certified distributor for the biobank. Additionally, LoVo cells were used to develop a doxorubicin-resistant subline, referred to as LoVo/Dx. Resistance was induced through gradual adaptation to increasing concentrations of doxorubicin, starting from 0.1 µg/mL and incrementally raised to 0.8 µg/mL. After reaching the maximum concentration, the cells were maintained in a medium containing 0.4 µg/mL doxorubicin for a period of three months to stabilize the resistant phenotype. […] The resulting LoVo/Dx subline, resistant to doxorubicin, was cultured in DMEM/F-12 medium and utilized in assays evaluating the effectiveness of novel compounds against multidrug-resistant cancer cells. […] The non-cancerous cell control was normal colonic epithelial cells (CCD 841 CoTr from American Type Culture Collection, (ATCC, Manassas, VA, USA)). Cell cultures were performed under standard conditions (5% CO2, 95% humidity, and 37 °C). Each cell line was cultured in the recommended medium: (1) HT-29 in McCoy’s 5a, (2) Caco-2 in Minimal Essential Medium (MEM, Biological Industries, Beit Haemek, Israel), (3) CCD 841 CoTr in Dulbecco’s Modified Eagle Medium (DMEM, Biological Industries, Beit Haemek, Israel), (4) LoVo in Dulbecco’s Modified Eagle Medium/F-12 (DMEM/F-12; Biological Industries, Beit Haemek, Israel), (5) LoVo/Dx in DMEM/F-12, and (6) EPG in DMEM. Culture media were supplemented with 10% fetal bovine serum (FBS, Sigma-Aldrich, Darmstadt, Germany) and antibiotics (penicillin and streptomycin; Sigma-Aldrich, Darmstadt, Germany). For assays, trypsinized (TrypLE solution, Thermo Fisher Scientific, Waltham, MA, USA) cells were seeded at appropriate densities of 10,000 cells per well for MTT and determination of apoptotic and necrotic cell numbers; 30,000 cells per well for the rhodamine accumulation assay; and 500,000 cells per well for ELISA tests.
The cytotoxicity of the compounds and drugs used as controls was assessed using the MTT assay. The assay also included a DMSO control. After seeding and allowing the cells to adhere overnight, they were treated with the tested compounds and drugs for another 24 h. After this time, the supernatant was removed, and a 1 mg/mL MTT solution was added for 2 h in 5% CO2, 95% humidity, at 37 °C. The supernatant was then removed, and isopropanol was added to dissolve the purple crystals over 30 min by shaking. Absorbance was measured at 570 nm in a Multiskan GO microplate reader (Thermo Fisher Scientific; Waltham, MA, USA). All reagents used for the assays were purchased from Sigma-Aldrich, Darmstadt, Germany.
Biological assays were performed in three independent replicates, each involving four samples. ELISA determinations were repeated three times.

p53 = p53 Human ELISA on HT-29 cell lysates; type: cell-based; details: HT-29, 1 µM, 24 h
Description: (§1) To check the effect of compound 6 on the level of p-53 and caspase-3 protein, another test was performed on HT-29 cells, taking doxorubicin as the reference drug.
(§2) To assess the level of caspase-3 and p53 protein, HT-29 cell lysates were used after 24 h of incubation with compounds 5 and 6. The supernatant was collected in the prepared and labeled tubes, the cells from the wells were scraped, and the wells were washed with cold PBS, which was also collected. The tubes were then centrifuged, the supernatant was removed, and the cell pellet was lysed in a cell extraction vessel for 30 min on ice, with […] every 10 min. The lysate was transferred to centrifuge tubes and centrifuged at 13,000 rpm for 10 min at 4 °C. The supernatant was transferred to clean tubes in a microcentrifuge.
(§3) The following kits were used: Human Caspase-3 (active) ELISA Kit (KHO1091) and p53 Human ELISA Kit (BMS256), used following the manufacturer’s instructions. ELISA kits were purchased from Thermo Fisher Scientific (Waltham, MA, USA). The absorbance was measured using a Multiskan GO microplate reader (Thermo Fisher Scientific, Waltham, MA, USA) at wavelengths specific to each kit, as recommended by the manufacturer.

Caspase-3 = test: Human Caspase-3 (active) ELISA on HT-29 cell lysates; type: cell-based; details: HT-29, 1 µM, 24 h
Description: as §1, §2, §3

interleukin-1β = test: IL-1β ELISA in HT-29 supernatant; type: cell-based, human; details: HT-29, 1 µM
Excerpt: (§4) The different effects of the anticancer compound on IL-6 and IL-1β can be explained by the different regulatory mechanisms of these cytokines and the distinct signaling pathways targeted by the therapy. The reduction in IL-6 levels may be due to the direct action of the compound on pathways promoting this cytokine or its ability to inhibit inflammatory processes specific to IL-6. In contrast, the increase in IL-1β levels might result from the inflammatory response to cellular stress or apoptosis induced by the therapy, leading to activation of the immune system and increased production of IL-1β.
(§5) Cytokine levels (IL-1β and IL-6) in the supernatant were measured for HT-29 and EPG cells treated with compounds 5 and 6, according to the instructions provided by the manufacturer of the ELISA kits were purchased from Abcam (Cambridge, UK). The absorbance was measured using a Multiskan GO microplate reader (Thermo Fisher Scientific, Waltham, MA, USA) at wavelengths specific to each kit, as recommended by the manufacturer.

interleukin-6 = test: IL-6 ELISA in HT-29 supernatant; type: cell-based, human; details: HT-29, 1 µM
Excerpt: as §4, §5

| SMILES | SI, LoVo (LoVo cells) | CC50 ± SD, LoVo (LoVo cells; MTT, 24 h, Non-toxic = no toxicity in tested range 1–500 μM) | CC50 (LoVo cells; Homo sapiens, LoVo, MTT, 24 h, Non-toxic = no toxicity in tested range 1–500 μM, read-out: CC50 ± SD, LoVo) | p53 Conc. ± SD (p53) | Caspase-3 Conc. ± SD (Caspase-3) | IL-1β Conc. ± SD (interleukin-1β) | IL-6 Conc. ± SD (interleukin-6) |
| --- | --- | --- | --- | --- | --- | --- | --- |
| Cc1cc(C)c(C(=O)NCc2nn(CN3CCN(c4cccc(Cl)c4)CC3)c(=S)n2-c2ccccc2)c(S)n1 [Compound 5, 4,6-dimethyl-N-[(4-phenyl-5-thioxo-2-{[4-(3-chlorophenyl)piperazinyl]methyl}-4,5-dihydro-1H-1,2,4-triazol-3-yl)methyl]-2-sulfanylpyridine-3-carboxamide] | >>1 ^c | Non-toxic ^b | – | – | – | – | – |
| Cc1ccc(N2CCN(Cn3nc(CNC(=O)c4c(C)cc(C)nc4S)n(-c4ccccc4)c3=S)CC2)cc1 [Compound 6] | 2.37 | – | 163 ± 4.6 µM | 3.50 ± 0.07 U/mL | 0.48 ± 0.07 ng/mL | 0.51 ± 0.11 pg/mL | 7.80 ± 0.30 pg/mL |
